Broadly, the IC50 is the concentration that gives 50% inhibition.

Format in all cases: cell-based
In one experiment the target is γ-secretase (Homo sapiens, UniProt P49768). The experiment can be described thus: γ-secretase RGA (reporter gene assay, Notch1 substrate) in HEK293 cells. To be noted: Notch1-VP16-Gal4 substrate, Gal4-luciferase reporter, 24 h, read-out: g-secretase RGA IC50. For orientation: Reporter assays use an easily measured gene product as a stand-in for the process of interest.

Experiment [1] has as its target T1, human SPPL2a (Homo sapiens, UniProt Q8TCT8).
T1 sequence (Q8TCT8 26-520): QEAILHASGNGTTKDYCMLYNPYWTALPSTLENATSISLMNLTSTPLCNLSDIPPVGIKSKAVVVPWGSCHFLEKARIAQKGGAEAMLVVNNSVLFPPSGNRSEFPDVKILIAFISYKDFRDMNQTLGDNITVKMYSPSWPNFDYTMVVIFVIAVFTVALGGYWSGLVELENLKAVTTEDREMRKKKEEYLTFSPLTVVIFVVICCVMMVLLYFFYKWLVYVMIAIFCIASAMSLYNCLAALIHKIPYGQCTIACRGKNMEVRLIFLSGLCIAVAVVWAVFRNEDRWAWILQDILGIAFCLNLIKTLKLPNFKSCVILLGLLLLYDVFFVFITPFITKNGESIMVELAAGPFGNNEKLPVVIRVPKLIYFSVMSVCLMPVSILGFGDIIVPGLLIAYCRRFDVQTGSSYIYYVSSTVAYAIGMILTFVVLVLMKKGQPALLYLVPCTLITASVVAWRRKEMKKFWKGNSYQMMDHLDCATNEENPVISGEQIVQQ
The experiment is described as follows: Sppl2a TL (translocation) imaging assay in U-2 OS cells. Further details: expressed in transfected cells. To be noted: U-2 OS cells expressing human SPPL2a and EGFP-TNFα(aa1-76) NTF substrate; 24 h. The gist of the method:
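U-2 OS cells stably expressing human SPPL2a plus doxycycline-induced EGFP-TNFα(aa1-76) NTF, treated 24 h at 37 °C with inhibitor (100 μM–1 nM, 11 points, 0.9% DMSO, 5 μg/mL doxycycline). Imaging of nuclear-minus-cytoplasmic EGFP intensity; % inhibition versus 0.5 μM LY-411,575 and DMSO, IC50 by nonlinear regression; CC50 from cell count.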

For experiment [2], the target named is T1, human SPPL2a. The experiment can be described thus: Sppl2a RGA (reporter gene assay) in HEK293 cells. More on the design: expressed in transfected cells; host or cells: HEK293 (transient). As to conditions: NT-TNF-VP16-Gal4 substrate, Gal4-luciferase reporter, 24 h. The gist of the method: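 Cleavage of a membrane-bound TNF N-terminal–VP16-Gal4 substrate drives Gal4-luciferase expression in transiently transfected HEK293 cells also expressing human SPPL2a. Compounds incubated 24 h, 37 °C, 5% CO2; luminescence read, normalized and plotted against concentration for IC50.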

The next experiment deals with T2, Sppl2a CD74 (Mus musculus, UniProt Q9JJF9).
T2 construct: Mouse whole blood Balb/c mice (sodium citrate) was ordered by Bioreclamation LLC; tissue Bioreclamation LLC
T2 sequence (Q9JJF9 26-523): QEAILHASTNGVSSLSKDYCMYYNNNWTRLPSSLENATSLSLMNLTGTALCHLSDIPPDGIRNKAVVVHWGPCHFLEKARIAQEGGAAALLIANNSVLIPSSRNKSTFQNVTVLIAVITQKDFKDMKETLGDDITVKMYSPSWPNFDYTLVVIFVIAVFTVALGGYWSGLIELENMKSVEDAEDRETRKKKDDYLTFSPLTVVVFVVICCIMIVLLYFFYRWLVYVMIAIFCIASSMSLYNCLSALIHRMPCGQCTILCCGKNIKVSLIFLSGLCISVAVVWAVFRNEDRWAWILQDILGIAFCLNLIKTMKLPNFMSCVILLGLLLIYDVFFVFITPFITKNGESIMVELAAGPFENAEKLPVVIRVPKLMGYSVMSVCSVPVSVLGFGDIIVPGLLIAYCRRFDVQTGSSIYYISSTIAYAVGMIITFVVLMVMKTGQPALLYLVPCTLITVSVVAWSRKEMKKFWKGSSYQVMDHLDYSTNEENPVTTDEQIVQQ
The experiment can be described thus: CD74/p8 mouse whole blood assay, flow cytometry format. To be noted: Balb/c mouse whole blood, 5 h, CD74 signal on gated live B cells. A digest of the protocol: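 Balb/c mouse whole blood (citrate) incubated 5 h at 37 °C with compounds, 11-point dilution from 30 μM top. After RBC lysis, live B220+ B cells stained intracellularly for CD74 (FITC) and analysed by flow cytometry. IC50 fitted from CD74 median fluorescence intensity.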
(In general: A flow cytometer gives signals particle by particle.)

Text for γ-secretase: The assay is based on the coupling of the proteolytic degradation of a membrane bound synthetic substrate, a VP16-Gal4 fusion protein with Notch1, which migrates to the nucleus upon cleavage, where it activates Gal4 driven expression of luciferase. […] The luciferase dependent-luminescence is plotted against the concentrations of compound to generate a dose response curve, which allows the calculation of the IC50 value. DNA vectors encoding human Notch1-VP16-Gal4 and a Gal4-luciferase reporter were transiently transfected in HEK293 cells, which express γ-secretase components endogenously. In a typical experiment 10 μg plasmid encoding the reporter Gal4-luciferase and 20 μg plasmid encoding the substrate Notch1-VP16-Gal4 were mixed together. The DNA mixture was combined with 107 μl FuGENE® (Promega), 735 μl Opti-MEM® (Life Technologies) and incubated for 5 minutes at RT. To this mixture 20 mL of concentrated HEK293 cells were added and thoroughly mixed. The cell suspension was distributed to a white solid 384 well plate. Within hours, 50 nl of compound in DMSO was stamped into the wells via pintool. […] After incubation at room temperature for 5 min, the plate was transferred to a luminometer and the luminescence was measured. The IC50 was determined by plotting compound concentration vs. normalized luminescence values.

Take “3,4-Dimethyl-N- ((R)-2-(((S)-11- oxo-2,3,10,11- tetrahydro- 1H,5H- benzo[d]pyrazolo [1,2- a][1,2]diazepin- 10- yl)carbamoyl)pen- tyl)isoxazole-5- carboxamide [Example 33]”: the IC50 on γ-secretase was > 10000 nM; against human SPPL2a [1], 37 nM; against human SPPL2a [2], 7 nM.

Turning to `COCCn1cc(-c2nc(Cl)c(NC(=O)C[C@@H](C)C(=O)N[C@@H]3C(=O)N4CCCN4Cc4ccccc43)s2)cn1` [Example 99, (R)-N^4-(4-Chloro-2-(1-(2-methoxyethyl)-1H-pyrazol-4-yl)thiazol-5-yl)-2-methyl-N^1-((S)-11-oxo-2,3,10,11-tetrahydro-1H,5H-benzo[d]pyrazolo [1,2-a][1,2]diazepin-10-yl)succinamide], the IC50 turned out to be 892 nM on Sppl2a CD74, 14 nM against human SPPL2a [1] and 50 nM against human SPPL2a [2].

For `C[C@@H](CF)NC(=O)c1cc(NC(=O)C[C@H](C(=O)N[C@@H]2C(=O)N3CCCN3Cc3c(F)cccc32)C2CC2)n(C)n1` [Example 100, (S)-2-Cyclopropyl-N^1-((S)-6-fluoro-11-oxo-2,3,10,11-tetrahydro-1H,5H-benzo[d]pyrazolo [1,2-a][1,2]diazepin-10-yl)-N^4-(3-(((S)-1-fluoropropan-2-yl)carbamoyl)-1-methyl-1H-pyrazol-5-yl)succinamide], the IC50 is 272 nM at Sppl2a CD74, 15 nM on human SPPL2a [1] and 28 nM on human SPPL2a [2].

As to `CCn1nc(-c2cc(C)no2)cc1NC(=O)C[C@@H](C)C(=O)N[C@@H]1C(=O)N2CCCN2Cc2ccccc21` [Example 101, (R)-N^4-(1-Ethyl-3-(3-methylisoxazol-5-yl)-1H-pyrazol-5-yl)-2-methyl-N^1-((S)-11-oxo-2,3,10,11-tetrahydro-1H,5H-benzo[d]pyrazolo [1,2-a][1,2]diazepin-10-yl)succinamide], the IC50 at Sppl2a CD74 was 473 nM; at human SPPL2a [1] it was 15 nM; against human SPPL2a [2] it was 7 nM.

For the molecule `C[C@H](CC(=O)Nc1cc(C(=O)NC2CC2)nn1C)C(=O)N[C@@H]1C(=O)N2CCCN2Cc2ccccc21` [Example 102, (R)-N^4-(3-(Cyclopropylcar-bamoyl)-1-methyl-1H-pyrazol-5-yl)-2-methyl-N^1-((S)-11-oxo-2,3,10,11-tetrahydro-1H,5H-benzo[d]pyrazolo [1,2-a][1,2]diazepin-10-yl)succinamide], the IC50 on Sppl2a CD74 worked out at 1520 nM; on human SPPL2a [1] it was 17 nM; against human SPPL2a [2] it was 123 nM.

On to `Cn1nc(-c2cc(C3CC3)no2)cc1NC(=O)C[C@H](C(=O)N[C@@H]1C(=O)N2CC3(CC3)CN2C(=O)c2ccccc21)C1CC1` [Example 103, (S)-2-Cyclopropyl-N^4-(3-(3-cyclopropylisoxa-zol-5-yl)-1-methyl-1H-pyrazol-5-yl)-N^1-((S)-5,11-dioxo-10,11-dihydro-1H,3H,5H-spiro[benzo[d]pyr-azolo[1,2-a][1,2]diazepine-2,1″- cyclopropan]-10-yl)succinamide], for which the IC50 on Sppl2a CD74 worked out at 1250 nM; against human SPPL2a [1], 17 nM; on human SPPL2a [2], 13 nM.

The record behind these values is patent publication US20230365571A1, “COMPOUNDS AND COMPOSITIONS AS Sppl2a INHIBITORS” (Novartis AG, priority 2020, published 2023).
